Converted amounts (≈) assume the structure as drawn. “Also recorded” adds a separate entry of the source. Like-named read-outs stand apart in the source and are kept apart here.
Legend:
Solubility = assay type: physicochemical
LRRK2 pSer935 = assay: LRRK2 Ser935 dephosphorylation in PBMC; assay type: cell-based, human; settings: time course at 300 nM
Description: PBMC cells were separated from human blood following existing protocol (dx.doi.org/10.17504/protocols.io.bnhxmb7n) and pelleted by centrifugation at 1000 g for 2 min. The supernatant was discarded and the PBMC pellet was resuspended in PBS containing 2% FBS for washing. The suspension was centrifuged at 1000 g for 2 min again and the PBMC pellet was resuspended in RPMI-1640 (Gibco) media supplemented with 10% FBS. The cells were then seeded into 6-well plates and treated with testing compounds at indicated concentrations and time period. After treatment, the cells were collected into 2-ml Eppendorf tube and centrifuged at 500 g for 2 min to pellet the cells, the supernatant was discarded, and the pellet was resuspended in 1 ml PBS and centrifuged at 500 g for 2 min again. […] The supernatants were collected for analysis by quantitative immunoblotting. […] Protein concentrations of cell lysates were determined using Pierce™ BCA Protein Assay Kit (ThermoFisher).
Cell lysates containing a quarter of a volume of 4× NuPAGE LDS sample buffer (NP0007) supplemented with 5% β-mercaptoethanol, were heated at 95° C. for 5 minutes. […] Thereafter, the membranes were washed with TBS-T three times with a 15-minute incubation for each wash, and protein bands were acquired via near-infrared fluorescent detection using the Odyssey CLx imaging system and quantified using Image Studio software. […]

[1] = Pharmacokinetic study in mice (plasma, brain, CSF); assay type: in vivo, mouse; settings: for AUC(0-inf) / AUC(0-t) / half-life: male, C57BL/6, mouse; for half-life: read-out: metabolic half-life (converted)
Description: PK profiling was outsourced and undertaken by Shanghai ChemPartner Co., Ltd. All animal experiments performed were conducted in compliance with the Institutional Animal Care and Use Committee (IACUC) and the Office of Laboratory Animal Welfare (OLAW) guidelines. Six- to eight-week-old C57BL/6 male mice purchased from Jihui Laboratory Animal Co. LTD were used in the study. […] The animals were restrained manually at the designated time points (0.083, 0.25, 0.5, 1, 2, 4, and 8 h); approximately, 110 μL of blood sample was collected via facial vein into K2EDTA tubes. Three mice per time point were used, resulting in a total of 21 mice for each administration route. The blood sample was put on ice and centrifuged at 2000 g for 5 min to obtain the plasma sample within 15 min. The plasma, brain, CSF samples were stored at approximately −70° C. until analysis. A 30 μL aliquot of plasma was added with 200 μL of internal standard (Glipozode, 40 ng/mL) in MeCN with 5% citri. The mixture was then vortexed for 1 min and then centrifuged for 10 min at 5800 rpm. The supernatant (100 μL) was transferred to a new plate. The solvent (1 μL) was injected to LC-MS/MS. LC-MS/MS instrument used: SCIEX LC-MS/MS-49 (Triple Quad 6500+). Data was analyzed by WinNonLin and Microsoft Excel.

[2] = CSF, intravenous 5 mg/Kg single dose
[3] = brain, gavage (oral) 30 mg/Kg single dose
[4] = brain, intraperitoneal 30 mg/Kg single dose
[5] = brain, intravenous 5 mg/Kg single dose
[6] = ip, brain, intraperitoneal 30 mg/Kg single dose
[7] = gavage (oral) 30 mg/Kg single dose
[8] = intraperitoneal 30 mg/Kg single dose

CNc1nc(Nc2ccc(C(=O)N3CCN(C[C@H]4CC[C@H](CSC(C)(C)[C@H](NC(=O)C5(F)CC5)C(=O)N5C[C@H](O)CC5C(=O)NCc5ccc(-c6scnc6C)cc5)CC4)CC3)cc2OC)ncc1Cl (stereo partly drawn) [XL01126, (2S,4R)-1-((R)-3-((((1R,4R)-4-((4-(4-((5-chloro-4-(methylamino)pyrimidin-2-yl)amino)-3-methoxybenzoyl)piperazin-1-yl)methyl)cyclohexyl)methyl)thio)-2-(1-fluorocyclopropane-1-carboxamido)-3-methylbutanoyl)-4-hydroxy-N-(4-(4-methylthiazol-5-yl)benzyl)pyrrolidine-2-carboxamide]
solubility (Solubility; FeSSIF (fed state simulated intestinal fluid), fessif, Fed State Simulated Intestinal Fluid pH 5.8, read-out: Solubility in FeSSIF (pH 5.8)): 26.1 µM (≈ 26.6 µg/mL)
solubility (Solubility; aqueous buffer, PBS pH 7.4, read-out: Solubility in PBS (pH 7.4)): 0.55 µM (≈ 0.561 µg/mL)
T1/2 of LRRK2 dephosphorylation in PBMC (LRRK2 pSer935): 1 h
maximum concentration in cerebrospinal fluid (CSF) [1, 2]: 27.4 ng/mL
time of maximum concentration in CSF [1, 2]: 0.083 h
maximum concentration in brain tissue [1, 3]: 27 ng/mL
time of maximum concentration in brain tissue [1, 3]: 2 h
maximum concentration in brain tissue [1, 4]: 218 ng/mL
time of maximum concentration in brain tissue [1, 4]: 0.5 h
maximum concentration in brain tissue [1, 5]: 155 ng/mL
time of maximum concentration in brain tissue [1, 5]: 0.083 h
reaches CSF (in words) ([1]; intraperitoneal 30 mg/Kg and orally 30 mg/Kg): also reaches CSF
blood brain barrier penetration (in words) ([1]; intravenous 5 mg/Kg, intraperitoneal 30 mg/Kg, oral 30 mg/Kg): capable of penetrating blood brain barrier; also recorded: can penetrant blood brain barrier
AUC(0-inf) [1, 2]: 240 ng·h/mL
AUC(0-t) [1, 2]: 107 ng·h/mL
half-life [1, 2]: 8.59 h
AUC(0-inf) [1, 3]: 402 ng·h/mL
AUC(0-t) [1, 3]: 142 ng·h/mL
half-life [1, 3]: 10.7 h
AUC(0-inf) [1, 5]: 349 ng·h/mL
AUC(0-t) [1, 5]: 258 ng·h/mL
half-life [1, 5]: 3.67 h
AUC(0-inf) [1, 6]: 884 ng·h/mL
AUC(0-t) [1, 6]: 752 ng·h/mL
half-life [1, 6]: 2.79 h
maximum plasma concentration [1, 7]: 3620 ng/mL
time of maximum plasma concentration [1, 7]: 2 h
maximum plasma concentration [1, 8]: 7700 ng/mL
time of maximum plasma concentration [1, 8]: 0.25 h
